Data taken from patent publication US20100204224A1, “AZACYCLIC COMPOUNDS AS INHIBITORS OF SENSORY NEURONE SPECIFIC SODIUM CHANNELS” (priority 2005, published 2010).

Biological target: T1, human Nav1.8 (hNav1.8) ion channel (Homo sapiens, UniProt Q9Y5Y9)
T1 construct: expressed in transfected cells
Experiment: Inhibition of human Nav1.8 stably expressed in SH-SY-5Y cells (membrane potential dye fluorescence assay)
Format: cell-based
Settings: SH-SY-5Y hNav1.8 cells; FLIPR membrane potential dye; 10 μM pyrethroid, 250 nM TTX; test concentration range 100 μM-0.05 μM; read-out: hNav1.8 IC50

T1 sequence (Q9Y5Y9 whole entry): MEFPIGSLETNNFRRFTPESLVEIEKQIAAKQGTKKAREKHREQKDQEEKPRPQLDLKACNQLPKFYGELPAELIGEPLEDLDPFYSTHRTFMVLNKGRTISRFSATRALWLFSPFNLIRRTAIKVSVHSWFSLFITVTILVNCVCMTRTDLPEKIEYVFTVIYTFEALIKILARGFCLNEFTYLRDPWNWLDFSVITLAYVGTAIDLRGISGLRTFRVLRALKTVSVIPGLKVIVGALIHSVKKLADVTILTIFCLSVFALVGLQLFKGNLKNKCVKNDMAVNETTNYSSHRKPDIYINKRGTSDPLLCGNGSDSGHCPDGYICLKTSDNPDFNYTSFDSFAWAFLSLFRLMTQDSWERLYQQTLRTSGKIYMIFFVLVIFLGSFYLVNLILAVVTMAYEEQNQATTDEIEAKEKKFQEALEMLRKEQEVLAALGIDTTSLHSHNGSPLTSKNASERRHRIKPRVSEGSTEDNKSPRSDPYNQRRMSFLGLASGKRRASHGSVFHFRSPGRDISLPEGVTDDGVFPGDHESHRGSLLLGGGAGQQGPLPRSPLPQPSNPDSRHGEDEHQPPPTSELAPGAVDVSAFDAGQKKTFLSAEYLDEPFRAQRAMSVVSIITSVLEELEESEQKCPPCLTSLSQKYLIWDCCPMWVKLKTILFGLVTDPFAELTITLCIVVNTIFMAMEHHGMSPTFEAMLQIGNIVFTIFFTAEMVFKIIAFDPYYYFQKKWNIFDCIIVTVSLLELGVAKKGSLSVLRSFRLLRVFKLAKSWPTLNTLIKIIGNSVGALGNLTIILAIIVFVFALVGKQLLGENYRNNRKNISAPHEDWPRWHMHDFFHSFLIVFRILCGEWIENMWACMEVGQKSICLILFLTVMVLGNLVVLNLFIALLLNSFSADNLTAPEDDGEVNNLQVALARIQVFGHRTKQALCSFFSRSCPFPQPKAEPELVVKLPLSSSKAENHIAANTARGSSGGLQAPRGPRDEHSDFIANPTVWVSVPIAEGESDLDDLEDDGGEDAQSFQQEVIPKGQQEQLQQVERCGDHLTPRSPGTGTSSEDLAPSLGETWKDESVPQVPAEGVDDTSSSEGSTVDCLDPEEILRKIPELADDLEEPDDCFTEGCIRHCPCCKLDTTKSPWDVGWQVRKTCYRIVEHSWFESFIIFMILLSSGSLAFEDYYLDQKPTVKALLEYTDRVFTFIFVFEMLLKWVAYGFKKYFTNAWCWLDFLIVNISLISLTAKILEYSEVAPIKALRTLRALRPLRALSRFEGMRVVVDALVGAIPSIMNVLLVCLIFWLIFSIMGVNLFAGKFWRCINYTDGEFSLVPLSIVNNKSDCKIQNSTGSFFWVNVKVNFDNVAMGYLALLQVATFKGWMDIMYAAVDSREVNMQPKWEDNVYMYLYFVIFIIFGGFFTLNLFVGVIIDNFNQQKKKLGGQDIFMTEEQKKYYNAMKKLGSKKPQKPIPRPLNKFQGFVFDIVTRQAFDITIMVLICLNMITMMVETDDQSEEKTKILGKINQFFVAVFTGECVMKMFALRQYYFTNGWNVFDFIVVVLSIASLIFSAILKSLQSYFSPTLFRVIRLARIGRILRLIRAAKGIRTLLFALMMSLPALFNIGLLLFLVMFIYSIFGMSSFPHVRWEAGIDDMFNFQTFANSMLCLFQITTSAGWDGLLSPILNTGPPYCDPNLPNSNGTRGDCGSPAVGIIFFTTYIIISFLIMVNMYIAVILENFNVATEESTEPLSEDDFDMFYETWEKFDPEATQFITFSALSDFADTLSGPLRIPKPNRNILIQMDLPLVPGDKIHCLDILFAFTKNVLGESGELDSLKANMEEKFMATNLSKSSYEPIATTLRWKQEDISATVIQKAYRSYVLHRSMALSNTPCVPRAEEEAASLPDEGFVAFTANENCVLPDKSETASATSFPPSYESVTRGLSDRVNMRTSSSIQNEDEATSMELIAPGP

SMILES	IC50 [nM]
Cc1ccccc1C(C)N1CC2CC1CN2C(=O)Nc1ccc(C(=O)c2ccccc2)cc1 (stereo not drawn) [Example 66, 5-(1-o-Tolyl-ethyl)-2,5-diaza-bicyclo[2.2.1]heptane-2-carboxylic acid (4-benzoyl-phenyl)-amide]	720
CC(c1ccc(F)cc1)N1CC2CC1CN2C(=O)Nc1cccc(Oc2ccccc2)c1 (stereo not drawn) [Example 52, 5-[1-(4-Fluoro-phenyl)-ethyl]-2,5-diaza-bicyclo[2.2.1]heptane-2-carboxylic acid (3-phenoxy-phenyl)-amide]	900
O=C(Nc1ccc(Oc2ccc(F)cc2)cc1)N1CC2CC1CN2C1CCc2ccccc2C1 (stereo not drawn) [Example 97, 5-(1,2,3,4-Tetrahydro-naphthalen-2-yl)-2,5-diaza-bicyclo[2.2.1]heptane-2-carboxylic acid [4-(4-fluoro-phenoxy)-phenyl]-amide]	310
O=C(Nc1ccc(Oc2ccc(F)cc2)cc1)N1CC2CC1CN2C1Cc2ccc(F)cc2C1 (stereo not drawn) [Example 131, 5-(5-Fluoro-indan-2-yl)-2,5-diaza-bicyclo[2.2.1]heptane-2-carboxylic acid [4-(4-fluoro-phenoxy)-phenyl]-amide]	550
CC(c1ccccc1Cl)N1CC2CC1CN2C(=O)Nc1ccc(Oc2ccc(F)cc2)cc1 (single isomer, unassigned) [Example 76, 5-[1-(2-Chloro-phenyl)-ethyl]-2,5-diaza-bicyclo[2.2.1]heptane-2-carboxylic acid [4-(4-fluoro-phenoxy)-phenyl]-amide]	270
O=C(Nc1ccc(Oc2ccccc2)cc1)N1CC2CN(Cc3ccccc3)CC2C1 (stereo not drawn) [Example 89, 5-Benzyl-hexahydro-pyrrolo[3,4-c]pyrrole-2-carboxylic acid (4-phenoxy-phenyl)-amide]	400
CC(c1ccc(Cl)cc1Cl)N1CC2CC1CN2C(=O)Nc1ccc(C(F)(F)F)cc1 (stereo not drawn) [Example 120, 5-[1-(2,4-Dichloro-phenyl)-ethyl]-2,5-diaza-bicyclo[2.2.1]heptane-2-carboxylic acid (4-trifluoromethyl-phenyl)-amide]	24500
CC(c1ccccc1Br)N1CC2CC1CN2C(=O)c1ccc(Oc2ccccc2)cc1 (stereo not drawn) [Example 159, {5-[1-(2-Bromo-phenyl)-ethyl]-2,5-diaza-bicyclo[2.2.1]hept-2-yl}-(4-phenoxy-phenyl)-methanone]	14800
CC(c1ccccc1C(F)(F)F)N1CC2CC1CN2C(=O)Nc1ccc(Oc2ccccc2)cc1 (single isomer, unassigned) [Example 60, 5-[1-(2-Trifluoromethyl-phenyl)-ethyl]-2,5-diaza-bicyclo[2.2.1]heptane-2-carboxylic acid (4-phenoxy-phenyl)-amide]	1480
CCOCCOc1ccc(NC(=O)N2CC3CC2CN3C(C)c2ccccc2C)cc1 (stereo not drawn) [Example 17, 5-(1-o-Tolyl-ethyl)-2,5-diaza-bicyclo[2.2.1]heptane-2-carboxylic acid [4-(2-ethoxy-ethoxy)-phenyl]-amide]	28000
Cc1ccccc1C(C)N1CC2CC1CN2C(=O)Nc1ccc(OCCN(C)C)cc1 (stereo not drawn) [Example 21, 5-(1-o-Tolyl-ethyl)-2,5-diaza-bicyclo[2.2.1]heptane-2-carboxylic acid [4-(2-dimethylamino-ethoxy)-phenyl]-amide]	28300
O=C(Nc1ccc(Oc2ccccc2F)cc1)N1CC2CC1CN2C1Cc2ccccc2C1 (stereo not drawn) [Example 113, 5-Indan-2-yl-2,5-diaza-bicyclo[2.2.1]heptane-2-carboxylic acid [4-(2-fluoro-phenoxy)-phenyl]-amide]	540
O=C(Nc1ccc(C(F)(F)F)cc1)N1CC2CC1CN2C1CCc2cc(F)ccc2C1 (stereo not drawn) [Example 100, 5-(6-Fluoro-1,2,3,4-tetrahydro-naphthalen-2-yl)-2,5-diaza-bicyclo[2.2.1]heptane-2-carboxylic acid (4-trifluoromethyl-phenyl)-amide]	640
O=C(Nc1ccc(Oc2ccc(F)cc2)cc1)N1CC2CC1CN2C1CCc2cc(F)ccc21 (stereo not drawn) [Example 93, 5-(5-Fluoro-indan-1-yl)-2,5-diaza-bicyclo[2.2.1]heptane-2-carboxylic acid [4-(4-fluoro-phenoxy)-phenyl]-amide]	310
Cc1ccc(C(C)N2CC3CC2CN3C(=O)Nc2ccc(Oc3ccc(F)cc3)cc2)c(C)c1 (stereo not drawn) [Example 117, 5-[1-(2,4-Dimethyl-phenyl)-ethyl]-2,5-diaza-bicyclo[2.2.1]heptane-2-carboxylic acid [4-(4-fluoro-phenoxy)-phenyl]-amide]	420
Cc1ccccc1C(C)N1CC2CC1CN2C(=O)Nc1cccc(Oc2ccccc2)c1 (stereo not drawn) [Example 8, 5-(1-o-Tolyl-ethyl)-2,5-diaza-bicyclo[2.2.1]heptane-2-carboxylic acid (3-phenoxy-phenyl)-amide]	680
C=CCOC(=O)NCCOc1ccc(NC(=O)N2CC3CC2CN3C(C)c2ccccc2C)cc1 (stereo not drawn) [Example 28, [2-(4-{[5-(1-o-Tolyl-ethyl)-2,5-diaza-bicyclo[2.2.1]heptane-2-carbonyl]-amino}-phenoxy)-ethyl]-carbamic acid allyl ester]	4890
Cc1ccc(Oc2ccc(NC(=O)N3CC4CC3CN4C(C)c3ccc(Cl)cc3Cl)cc2)cc1 (stereo not drawn) [Example 123, 5-[1-(2,4-Dichloro-phenyl)-ethyl]-2,5-diaza-bicyclo[2.2.1]heptane-2-carboxylic acid (4-p-tolyloxy-phenyl)-amide]	20800
CC(c1ccccc1Cl)N1CC2CC1CN2C(=O)Nc1ccc(Oc2ccc(F)cc2)cc1 (single isomer, unassigned) [Example 73, 5-[1-(2-Chloro-phenyl)-ethyl]-2,5-diaza-bicyclo[2.2.1]heptane-2-carboxylic acid [4-(4-fluoro-phenoxy)-phenyl]-amide]	1130
Cc1ccccc1C(C)N1CC2CC1CN2C(=O)Nc1ccc(OCCc2ccccn2)cc1 (stereo not drawn) [Example 45, 5-(1-o-Tolyl-ethyl)-2,5-diaza-bicyclo[2.2.1]heptane-2-carboxylic acid [4-(2-pyridin-2-yl-ethoxy)-phenyl]-amide]	3270
CC(c1ccccc1C(F)(F)F)N1CC2CC1CN2C(=O)Nc1cccc(C(F)(F)F)c1 (stereo not drawn) [Example 57, 5-[1-(2-Trifluoromethyl-phenyl)-ethyl]-2,5-diaza-bicyclo[2.2.1]heptane-2-carboxylic acid (3-trifluoromethyl-phenyl)-amide]	5130
CC(c1ccc(F)cc1)N1CC2CC1CN2C(=O)Nc1ccc(C(F)(F)F)cc1 (stereo not drawn) [Example 53, 5-[1-(4-Fluoro-phenyl)-ethyl]-2,5-diaza-bicyclo[2.2.1]heptane-2-carboxylic acid (4-trifluoromethyl-phenyl)-amide]	2500
CC(c1ccc(F)cc1Cl)N1CC2CC1CN2C(=O)Nc1ccc(Oc2ccc(F)cc2)cc1 (stereo not drawn) [Example 132, 5-[1-(2-Chloro-4-fluoro-phenyl)-ethyl]-2,5-diaza-bicyclo[2.2.1]heptane-2-carboxylic acid [4-(4-fluoro-phenoxy)-phenyl]-amide]	1140
CC(c1ccccn1)N1CC2CC1CN2C(=O)c1ccc(Oc2cccc(C#N)c2)cc1 (stereo not drawn) [Example 180, 3-{4-[5-(1-Pyridin-2-yl-ethyl)-2,5-diaza-bicyclo[2.2.1]heptane-2-carbonyl]-phenoxy}-benzonitrile]	4650
CC(c1ccccc1Cl)N1CC2CC1CN2C(=O)Nc1ccc(Oc2ccc(F)cc2)c(F)c1 (stereo not drawn) [Example 110, 5-[1-(2-Chloro-phenyl)-ethyl]-2,5-diaza-bicyclo[2.2.1]heptane-2-carboxylic acid [3-fluoro-4-(4-fluoro-phenoxy)-phenyl]-amide]	210
O=C(Nc1ccc(Oc2ccc(F)cc2)cc1)N1CCC2(CCN(Cc3ccccc3)C2)C1 (stereo not drawn) [Example 103, 7-Benzyl-2,7-diaza-spiro[4.4]nonane-2-carboxylic acid [4-(4-fluoro-phenoxy)-phenyl]-amide]	390
C=CCOc1ccc(NC(=O)N2CC3CC2CN3C(C)c2ccccc2C)cc1 (stereo not drawn) [Example 20, 5-(1-o-Tolyl-ethyl)-2,5-diaza-bicyclo[2.2.1]heptane-2-carboxylic acid (4-allyloxy-phenyl)-amide]	3420
Cc1ccccc1C(C)N1CC2CC1CN2C(=O)Nc1ccc(Cc2ccccc2)cc1 (stereo not drawn) [Example 34, 5-(1-o-Tolyl-ethyl)-2,5-diaza-bicyclo[2.2.1]heptane-2-carboxylic acid (4-benzyl-phenyl)-amide]	640
CC(c1ccccc1C(F)(F)F)N1CC2CC1CN2C(=O)Nc1ccc(Oc2ccccc2)cc1 (single isomer, unassigned) [Example 62, 5-[1-(2-Trifluoromethyl-phenyl)-ethyl]-2,5-diaza-bicyclo[2.2.1]heptane-2-carboxylic acid (4-phenoxy-phenyl)-amide]	17200

Same assay, conditions: hNav1.8 IC50, SH-SY-5Y hNav1.8 cells; FLIPR membrane potential dye; 10 μM pyrethroid, 250 nM TTX; test concentration range 100 μM-0.05 μM

SMILES	IC50 [nM]
Cc1ccccc1C(C)N1CC2CC1CN2C(=O)Nc1ccc(Oc2ccc(F)cc2)cc1 (single isomer, unassigned) [Example 29, 5-(1-o-Tolyl-ethyl)-2,5-diaza-bicyclo[2.2.1]heptane-2-carboxylic acid [4-(4-fluoro-phenoxy)-phenyl]-amide]	340
CC(c1ccccc1Cl)N1CC2CC1CN2C(=O)Cc1ccc(Oc2ccc(F)cc2)cc1 (stereo not drawn) [Example 136, 1-{5-[1-(2-Chloro-phenyl)-ethyl]-2,5-diaza-bicyclo[2.2.1]hept-2-yl}-2-[4-(4-fluoro-phenoxy)-phenyl]-ethanone]	2410
O=C(Cc1ccc(C(F)(F)F)cc1)N1CC2CC1CN2C1CCc2ccccc2C1 (stereo not drawn) [Example 147, 1-[5-(1,2,3,4-Tetrahydro-naphthalen-2-yl)-2,5-diaza-bicyclo[2.2.1]hept-2-yl]-2-(4-trifluoromethyl-phenyl)-ethanone]	3100
CC(c1ccccc1Cl)N1CC2CC1CN2C(=O)Cc1ccc(Oc2ccc(F)cc2)cc1 (stereo not drawn) [Example 135, 1-{5-[1-(2-Chloro-phenyl)-ethyl]-2,5-diaza-bicyclo[2.2.1]hept-2-yl}-2-[4-(4-fluoro-phenoxy)-phenyl]-ethanone]	940
